Values of other authors, collected in paper PMC3547157 (Journal of the American Chemical Society, 2012).

Biological target: T1, COX-2 enzyme (Homo sapiens, UniProt P35354)
T1 sequence (P35354 18-604): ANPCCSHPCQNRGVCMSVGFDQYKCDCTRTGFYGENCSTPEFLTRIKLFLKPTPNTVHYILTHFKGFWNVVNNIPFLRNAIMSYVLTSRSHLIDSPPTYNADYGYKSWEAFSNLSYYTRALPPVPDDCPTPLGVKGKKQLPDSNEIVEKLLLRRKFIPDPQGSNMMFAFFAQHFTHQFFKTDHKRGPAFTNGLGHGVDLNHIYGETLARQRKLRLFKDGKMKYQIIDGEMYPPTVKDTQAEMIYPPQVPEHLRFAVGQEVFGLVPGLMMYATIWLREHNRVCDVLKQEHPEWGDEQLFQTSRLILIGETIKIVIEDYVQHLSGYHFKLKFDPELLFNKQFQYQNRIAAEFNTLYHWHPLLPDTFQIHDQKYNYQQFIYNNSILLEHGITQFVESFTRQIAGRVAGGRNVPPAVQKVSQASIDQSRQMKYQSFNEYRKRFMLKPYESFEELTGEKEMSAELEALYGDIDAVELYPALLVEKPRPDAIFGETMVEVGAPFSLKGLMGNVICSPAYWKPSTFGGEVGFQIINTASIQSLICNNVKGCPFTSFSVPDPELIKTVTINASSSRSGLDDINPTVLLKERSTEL
Settings: read-out: reported IC50 of naproxen to COX-2; literature values

With `COc1ccc2cc([C@H](C)C(=O)O)ccc2c1` [naproxen] as the compound, how does the IC50 read?
The IC50 was 2 to 28.4 µM.
